Some test systems named below: T-47D breast; UACC-257 melanoma; MOLT-4 leukemia; A498 renal; SK-MEL-28 melanoma; SW-620 colon; SNB-75 CNS; LOX IMVI melanoma; NCI-H226 lung; KM12 colon.
Holding throughout (assay): NCI tumour cell line growth inhibition, 48 h

Here are results for 10 compounds from PubChem BioAssay (NCI).

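Briefly, cells in 96-well plates were exposed to five compound concentrations for 48 h, and endpoints were estimated by linear interpolation. Here, GI50 denotes the concentration required for 50% inhibition of growth. TGI denotes the concentration required for complete inhibition of growth.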

In the case of `C#CCOc1cccc(-c2ncnc3cc(NC(=O)CCl)ccc23)c1`, the GI50 is 1.69 µM in the test with T-47D breast; 1.64 µM with UACC-257 melanoma; 0.043 µM in the test with MOLT-4 leukemia; 3.83 µM with A498 renal; 1.56 µM in the test with SK-MEL-28 melanoma; 0.0221 µM in the test on SW-620 colon. The GI50 was 1.15 µM in the test on SNB-75 CNS, 0.0385 µM in the test on LOX IMVI melanoma, 1.42 µM in the test on NCI-H226 lung and 0.622 µM in the test with KM12 colon. Moreover, the TGI in the test with T-47D breast was 5.02 µM; in the test on UACC-257 melanoma, 5.19 µM; in the test on MOLT-4 leukemia, above 100 µM; in the test with A498 renal, 15.9 µM; with SK-MEL-28 melanoma it was 4.5 µM; in the test with SW-620 colon it was 1.51 µM. The TGI with SNB-75 CNS turned out to be 9.48 µM; in the test on LOX IMVI melanoma, 1.34 µM; with NCI-H226 lung, 5.54 µM; in the test on KM12 colon, 3.2 µM.

In the case of `Nc1ccccc1C(=O)CC1OC(=O)c2ccccc21` (stereo unspecified), the TGI with T-47D breast, with UACC-257 melanoma, in the test on MOLT-4 leukemia, with A498 renal, with SK-MEL-28 melanoma and in the test with SW-620 colon was above 100 µM in each case. The TGI in the test with SNB-75 CNS, in the test on LOX IMVI melanoma, in the test with NCI-H226 lung and in the test on KM12 colon was above 100 µM each time.

`COc1ccc2c(C)cc(N/N=C/c3ccc(OC)c4ccccc34)nc2c1`: the TGI in the test on T-47D breast is 24.1 µM; in the test with UACC-257 melanoma, 36.9 µM; in the test with MOLT-4 leukemia, 52.9 µM; with SK-MEL-28 melanoma, 31.6 µM; in the test on SW-620 colon, 22.2 µM; in the test with SNB-75 CNS, 42.2 µM. The figures for the TGI in the test with LOX IMVI melanoma, in the test with NCI-H226 lung and in the test with KM12 colon were 12.3 µM, 29.6 µM and 29.6 µM, respectively.

As for `Cc1ccc(-c2csc(/N=C3\C(=O)Nc4ccccc43)n2)cc1`, the GI50 in the test with T-47D breast was 1.36 µM; with A498 renal, 1.71 µM; with SK-MEL-28 melanoma it was 1.47 µM; with SW-620 colon, 1.62 µM; in the test on SNB-75 CNS it was 1.17 µM; in the test with LOX IMVI melanoma, 1.28 µM. Further, the GI50 is 1.78 µM in the test with NCI-H226 lung and 1.86 µM in the test with KM12 colon. Besides, the TGI in the test on T-47D breast worked out at 4.46 µM; with A498 renal, 3.53 µM; with SK-MEL-28 melanoma it was 3.03 µM; with SW-620 colon it was 3.66 µM; with SNB-75 CNS, 2.85 µM; in the test with LOX IMVI melanoma, 2.8 µM. Further, the figures for the TGI in the test with NCI-H226 lung and with KM12 colon were 3.71 µM and 4.51 µM, respectively.

For `COc1cc(NC(N)=NCCC(C)(C)Oc2ccc(C(F)(F)F)cc2)ncc1C#N`, the GI50 was 1.56 µM in the test with T-47D breast; 1.7 µM in the test with UACC-257 melanoma; 1.8 µM in the test with A498 renal; 1.83 µM in the test on SK-MEL-28 melanoma; 1.69 µM in the test on SW-620 colon; 1.55 µM in the test with SNB-75 CNS. For the same compound, the GI50 in the test with LOX IMVI melanoma is 1.6 µM; in the test on KM12 colon it was 1.68 µM. Also, the TGI in the test on T-47D breast turned out to be 3.29 µM; in the test on UACC-257 melanoma it was 3.11 µM; with A498 renal, 3.23 µM; with SK-MEL-28 melanoma, 3.23 µM; in the test with SW-620 colon, 3.46 µM; with SNB-75 CNS, 3.02 µM. The TGI turned out to be 3.01 µM in the test with LOX IMVI melanoma and 3.17 µM in the test on KM12 colon.

In the case of `Cc1ccc(S(=O)(=O)NC(=O)C2C(=O)CC3(CCCCC3)CC2=O)cc1`, the TGI is above 100 µM with T-47D breast; 78.1 µM with UACC-257 melanoma; above 100 µM in the test with MOLT-4 leukemia; 80.6 µM in the test with A498 renal; 84.7 µM with SW-620 colon; above 100 µM in the test on SNB-75 CNS. The TGI in the test on LOX IMVI melanoma was above 100 µM; in the test on NCI-H226 lung it was above 100 µM; in the test on KM12 colon, 50 µM.

Consider `C=C1C(=O)O[C@H]2C[C@@H]1CC/C(C)=C/CC/C(C)=C/CC[C@H]2C`, for which the GI50 was 25 µM with T-47D breast; 11.5 µM in the test on UACC-257 melanoma; 10.6 µM in the test with MOLT-4 leukemia; 20.6 µM with A498 renal; 21.4 µM with SK-MEL-28 melanoma; 14.7 µM in the test with SW-620 colon. The GI50 in the test on SNB-75 CNS was 19.4 µM; with LOX IMVI melanoma, 5.56 µM; in the test on KM12 colon, 18.1 µM. Also, the TGI in the test on T-47D breast was 51.6 µM; in the test on UACC-257 melanoma it was 29.4 µM; with MOLT-4 leukemia, above 24.6 µM; with A498 renal it was 36.6 µM; in the test on SK-MEL-28 melanoma, 42.9 µM; in the test with SW-620 colon it was 45.9 µM. Also, the TGI with SNB-75 CNS amounted to 35.2 µM; in the test with LOX IMVI melanoma, 12.3 µM; in the test on KM12 colon, 44.4 µM.

For the compound `CC(C)=CCc1c(OC(=O)c2c(C)cc(O)cc2O)cc(CO)c(CO)c1O`, the TGI is 23.8 µM in the test on T-47D breast; above 100 µM with UACC-257 melanoma; 63 µM in the test with MOLT-4 leukemia; 35.1 µM in the test on A498 renal; 46.7 µM with SK-MEL-28 melanoma; 40.7 µM in the test on SNB-75 CNS. For the same compound, the TGI in the test with LOX IMVI melanoma is 40.9 µM; in the test with NCI-H226 lung, above 100 µM; in the test with KM12 colon, 30.6 µM.

On to `CCOc1ccc2nc(SCc3nc4n(n3)S(=O)(=O)c3ccccc3N4C)sc2c1`, for which the GI50 in the test on T-47D breast was 81.6 µM; with UACC-257 melanoma, above 100 µM; in the test on MOLT-4 leukemia it was above 100 µM; with A498 renal, above 100 µM; in the test on SK-MEL-28 melanoma, above 100 µM; with SW-620 colon, above 100 µM. The GI50 is 28.8 µM in the test with SNB-75 CNS, above 100 µM in the test on LOX IMVI melanoma and above 100 µM with NCI-H226 lung. Further, the TGI with T-47D breast, in the test on UACC-257 melanoma, with MOLT-4 leukemia, in the test with A498 renal, in the test on SK-MEL-28 melanoma and with SW-620 colon was above 100 µM throughout. The TGI in the test with SNB-75 CNS was 83.8 µM; in the test with LOX IMVI melanoma it was above 100 µM; with NCI-H226 lung, above 100 µM.

In the case of `COc1cc(-c2cc3ncccc3c3nc(N)c4cccnc4c23)cc(OC)c1OC`, the GI50 is 0.824 µM in the test on T-47D breast; 2.08 µM in the test with UACC-257 melanoma; 0.604 µM in the test with MOLT-4 leukemia; 2.93 µM in the test with SK-MEL-28 melanoma; 0.468 µM in the test on SW-620 colon; 0.482 µM with LOX IMVI melanoma. The GI50 is 16.8 µM in the test on NCI-H226 lung and 0.36 µM in the test on KM12 colon. Further, the TGI is 32 µM in the test on T-47D breast; 44.7 µM with UACC-257 melanoma; 8.05 µM with MOLT-4 leukemia; above 100 µM in the test with SK-MEL-28 melanoma; above 100 µM in the test with SW-620 colon; 15.7 µM in the test on LOX IMVI melanoma. Besides, the results for the TGI in the test with NCI-H226 lung and in the test with KM12 colon were above 100 µM and 33.4 µM, respectively.
